Reference: patent US7067520B2, “Preventive or therapeutic medicines for diabetes containing fused-heterocyclic compounds or their salts” (Ishihara Sangyo Kaisha, Ltd., priority 2000, dated 2006)

Key:
L6 cells = experiment: Glucose uptake test by L6 cells; format: cell-based; conditions: Rattus norvegicus, 1 hour, 2-deoxy-[3H]-glucose uptake, control (MEM solvent alone) = 100%, read-out: Ratio activity (%); for activity at 10 µg/mL: treatment concentration 10 μg/ml; for activity at 100 µg/mL: treatment concentration 100 μg/ml
Experimental: Glucose Uptake Test by L6 Cells
Each of compounds under test was applied to L6 cells (rat cells originally derived from skeletal muscles) by the following method to measure the stimulating effect on glucose uptake. Namely, L6 cells were suspended in α-minimum essential medium (hereinafter referred to simply as MEM) containing 10% fetal bovine serum (hereinafter referred to simply as FBS), and inoculated into a 96-well plastic plate in an amount of 5×10^4 cells/well and cultivated in an incubator (5% carbon dioxide gas, 37° C.) until the cells grew all over the well. Then, the culture medium was switched to MEM solution containing 2% BS, followed by cultivation further for from 7 to 10 ays (the culture medium was exchanged every three days) to differentiate the cells into skeletal muscle cells. Then, the culture medium was replaced with MEM solution without FBS, followed by cultivation for three hours, and then the compound under test prepared to a treatment concentration (diluted with MEM solution without FBS) was reacted with the skeletal muscle cells at 37° C. for 1 hour. The cells were washed with Krebs-Henseleit-Ringer buffer solution (hereinafter referred to simply as KHR buffer solution), and 2-deoxy-[^3H]-glucose was added to the cells in the KHR buffer solution, followed by treatment at 37° C. for 10 minutes. The treatment solution was removed, the cells were washed with the KHR buffer solution, then the cells were dissolved in a 1N sodium hydroxide solution in an appropriate amount, and the [^3H] radio activity was measured by means of a liquid scintillation counter (cpm) The percentage of the glucose uptake was represented by the percentage of radio activity when the compound under test was applied, taking the radio activity of the control (the MEM solvent alone was applied) as 100%. Each of the compounds as identified in Table 27 was used for treatment at a concentration of each of 10 μg/ml and 100 μg/ml to examine the stimulating effect on glucose uptake.

| SMILES | melting point | activity at 10 µg/mL (L6 cells) [%] | activity at 100 µg/mL (L6 cells) [%] |
| --- | --- | --- | --- |
| CCOCNc1c(C#N)c(SC)nc2ccnn12 [compound 9] | 132 to 133 °C | > 115 | > 115 |
| CSc1nc2ccnn2c(NCC2CCCCO2)c1C#N (stereo not shown) [compound 11] | 121 to 122 °C | > 115 |  |
| CNc1c(C#N)c(SC)nc2ccnn12 [compound 14] | 216 °C |  | > 115 |
| CCNc1c(C#N)c(SC)nc2ccnn12 [compound 15] | 133 °C |  | > 115 |
| CSc1nc2ccnn2c(N(C)C)c1C#N [compound 17] | 144 °C |  | > 115 |
| C#CCNc1c(C#N)c(C)nc2ccnn12 [compound 22] | 169 °C | > 115 | > 115 |
| Cc1nc2ccnn2c(N)c1C#N [compound 25] |  |  | > 115 |
| Cc1nc2ccnn2c(NCc2ccncc2)c1C#N [compound 29] | 165 °C |  | > 115 |
| CSc1nc(NCc2ccncc2)n2nccc2n1 [compound 40] | 136 °C | > 115 | > 115 |
| C#CCOc1c(C#N)c(SC)nc2ccnn12 [compound 53] | 183 °C |  | > 115 |
| C#CCNc1c(S(=O)(=O)c2ccccc2)c(SC)nc2ccnn12 [compound 60] | 162 to 163 °C | > 115 |  |
| C#CCNc1nc(SC)nc2ccnn12 [compound 64] | 175 °C | > 115 |  |
| CSc1nc2ccnn2c(NC2CCCC2)c1C#N [compound 79] | 118 °C | > 115 |  |
| CSc1nc2ccnn2c(NCCC#N)c1C#N [compound 82] | 188 °C | > 115 |  |
| CSc1nc2ccnn2c(NCCCn2ccnc2)c1C#N [compound 83] | 144 to 146 °C |  | > 115 |
| N#Cc1c(SC2CCCC2)nc2ccnn2c1NCc1ccncc1 [compound 105] | 153.4 to 155.4 °C | > 115 |  |
| CCOCSc1nc2ccnn2c(NCc2ccncc2)c1C#N [compound 118] | 160 to 161.6 °C | > 115 | > 115 |
| COC(=O)c1c(SC)nc2ccnn2c1Nc1ccccc1 [compound 122] |  | > 115 | > 115 |
| CSc1nc2ccnn2c(NCc2ccncc2)c1[N+](=O)[O-] [compound 126] | 154 to 155 °C | > 115 |  |

| SMILES | melting point | activity at 10 µg/mL (L6 cells) [%] | activity at 100 µg/mL (L6 cells) [%] |
| --- | --- | --- | --- |
| CSc1nc2ccnn2c(NOCc2ccccc2)c1C(=O)O [compound 132] |  |  | > 115 |
| COC(=O)c1c(SC)nc2ccnn2c1NOC1OCCO1 [compound 133] | 126.5 to 127.5 °C | > 115 |  |
| COc1nc2ccnn2c(NCC2OCCO2)c1C#N [compound 136] | 148.3 to 149.7 °C | > 115 | > 115 |
| CSc1nc2cc(C)nn2c(O)c1C#N [compound 184] | > 250 °C |  |  |
| CSc1nc2cc(C)nn2c(Cl)c1C#N [compound 185] | 182 to 187 °C |  |  |
| COc1cccc(Nc2c(C#N)c(SC)nc3cc(C)nn23)c1 [compound 192] | 142 to 143 °C |  |  |
| COC(=O)c1cccc(Nc2c(C#N)c(SC)nc3ccnn23)c1 [compound 194] | 153 to 155 °C |  |  |
| CSc1nc2ccnn2c(Nc2ccc(S(C)(=O)=O)cc2)c1C#N [compound 201] | 241 to 244 °C |  |  |
| CSc1nc2ccnn2c(NOc2ncc(C(F)(F)F)cc2Cl)c1C#N [compound 204] | 182 to 183 °C |  |  |
| CSc1nc2ccnn2c(NCc2ncc(C(F)(F)F)cc2Cl)c1C#N [compound 207] | 185 to 187 °C |  |  |
| CSc1nc2ccnn2c(NOCC2OCCO2)c1C#N [compound 208] | 152 to 153 °C |  |  |
| CSc1nc2ccnn2c(NOCC2CCCCO2)c1C#N (stereo not shown) [compound 209] | 161 °C |  |  |
| CSc1nc2ccnn2c(NCC2CCCO2)c1C#N (stereo not shown) [compound 212] | 116 to 120 °C |  |  |
| CSc1nc2ccnn2c(NOCC2CCCO2)c1C#N (stereo not shown) [compound 213] | 143 to 144 °C |  |  |
| CSc1nc2ccnn2c(NCCC2OCCCO2)c1C#N [compound 216] | 103 to 104 °C |  |  |
| CSc1nc2ccnn2c(NOCCC2OCCCO2)c1C#N [compound 217] | 193 to 195 °C |  |  |
| CCN(Cc1ccncc1)c1c(C#N)c(SC)nc2ccnn12 [compound 228] | 102 to 103 °C |  |  |
| COc1c(C#N)c(SC)nc2ccnn12 [compound 229] | 223 to 224 °C |  |  |

Further lines, with some results ahead:

| melting point | SMILES | activity at 10 µg/mL (L6 cells) [%] | activity at 100 µg/mL (L6 cells) [%] |
| --- | --- | --- | --- |
| 165 °C | CSc1nc2ccnn2c(NCc2ccccc2)c1C#N [Compound No. 2, 7-benzylamino-5-methylthiopyrazolo[1,5-a]pyrimidine-6-carbonitrile] | > 115 | > 115 |
| 190 °C | CSc1nc2ccnn2c(NCc2ccccn2)c1C#N [Compound No. 5] |  | > 115 |
| 192 °C | CSc1nc2ccnn2c(NCc2cccnc2)c1C#N [compound 4] |  | > 115 |
| 143 °C | Cc1nc2ccnn2c(NCCc2ccccc2)c1C#N [compound 27] |  | > 115 |
| 125 °C | N#Cc1cnc2ccnn2c1NCc1ccccc1 [compound 28] |  | > 115 |
| 204 °C | CSc1nc2nccn2c(NCc2ccncc2)c1C#N [compound 43] | > 115 | > 115 |
| 172 °C | CSc1nc2cc(-c3ccccc3)nn2c(NCc2ccccc2)c1C#N [compound 46] |  | > 115 |
| 233 °C | CSc1nc2nc3ccccc3n2c(NCc2ccccc2)c1C#N [compound 47] |  | > 115 |
| 232 °C | CSc1nc2cc(-c3ccccc3)nn2c(NCc2ccncc2)c1C#N [compound 48] |  | > 115 |
| 196 to 196.4 °C | CCSc1nc2ccnn2c(NCc2ccncc2)c1C#N [compound 68] | > 115 | > 115 |
| 187.8 to 189.2 °C (dec.) | N#Cc1c(SCc2ccccc2)nc2ccnn2c1NCc1ccncc1 [compound 71] | > 115 | > 115 |
| 195 to 196 °C | CSc1nc2ccnn2c(Nc2ccccc2)c1C#N [compound 80] | > 115 |  |
| 164 to 165.5 °C (dec.) | COCSc1nc2ccnn2c(NCc2ccncc2)c1C#N [compound 108] |  | > 115 |
| 124.5 to 126.5 °C | COC(=O)c1c(SC)nc2ccnn2c1NCc1ccccc1 [compound 120] | > 115 |  |
| 158.5 to 160.5 °C | COC(=O)c1c(SC)nc2ccnn2c1NCc1ccccc1 [compound 121] |  | > 115 |
| 148.8 to 149.6 °C | COc1nc2ccnn2c(NCc2ccccc2)c1C#N [compound 135] | > 115 | > 115 |

| melting point | SMILES | activity at 10 µg/mL (L6 cells) [%] | activity at 100 µg/mL (L6 cells) [%] |
| --- | --- | --- | --- |
| 275 to 276 °C | CSc1nc2ccnn2c(Nc2ccc(Cl)cc2)c1C#N [compound 161] | > 115 |  |
| 122 °C | CSc1nc2ccnn2c(NCCOc2ccccc2)c1C#N [compound 181] |  |  |
| 125 °C | CSc1nc2ccnn2c(OCCOc2ccccc2)c1C#N [compound 182] |  |  |
| 138 °C | CSc1nc2ccnn2c(SCc2ccccc2)c1C#N [compound 183] |  |  |
| 204 to 205 °C | CSc1nc2cc(C)nn2c(NCc2ccccc2)c1C#N [compound 187] |  |  |
| 190 to 191 °C | CSc1nc2cc(C)nn2c(NCc2ccncc2)c1C#N [compound 188] |  |  |
| 185 to 187 °C | CSc1nc2cc(C)nn2c(Nc2ccccc2)c1C#N [compound 189] |  |  |
| > 280 °C | CSc1nc2ccnn2c(Nc2ccc(NC(C)=O)cc2)c1C#N [compound 193] |  |  |
| 168 to 171 °C | CSc1nc2ccnn2c(Nc2cccc(C(=O)O)c2)c1C#N [compound 195] |  |  |
| 190 to 191 °C | CSc1ccc(Nc2c(C#N)c(SC)nc3ccnn23)cc1 [compound 196] |  |  |
| > 280 °C | CSc1nc2ccnn2c(Nc2ccc(C(N)=O)cc2)c1C#N [compound 197] |  |  |
| 268 to 269 °C | CSc1nc2ccnn2c(Nc2ccc(CC#N)cc2)c1C#N [compound 198] |  |  |
| 260 to 261 °C | CSc1nc2ccnn2c(Nc2ccc(C(C)=O)cc2)c1C#N [compound 199] |  |  |
| 250 to 252 °C | CSc1nc2ccnn2c(Nc2ccc(N(C)C)cc2)c1C#N [compound 202] |  |  |
| 206 to 208 °C | CSc1nc2ccnn2c(Nc2ccccc2C#N)c1C#N [compound 214] |  |  |
